The values that follow come from publication PMC7611906 (Nature chemical biology, 2021).

The subject of this assay is caspase 3/7 in 22Rv1 cells. The assay is described as follows: Caspase-Glo 3/7 assay 22Rv1. The class given is cell-based. The settings on record: read-out: EC50 Caspase-Glo 3/7, 24h.

With `Cc1ncsc1-c1ccc([C@H](C)NC(=O)[C@@H]2C[C@@H](O)CN2C(=O)[C@@H](NC(=O)COCCCOCCNC(=O)C[C@@H]2N=C(c3ccc(Cl)cc3)c3c(sc(C)c3C)-n3c(C)nnc32)C(C)(C)C)cc1` [ARV-771], the EC50 was determined as 90 nM.
